Results published in paper PMC8634040, “The multi-target aspect of an MmpL3 inhibitor: The BM212 series of compounds bind EthR2, a transcriptional regulator of ethionamide activation” (The Cell Surface, 2021).

How the values were obtained:
[1] = target: T1, BCG_0174 (SnoaL-like domain-containing, ortholog to Rv0138) (Mycobacterium tuberculosis, UniProt A0A679LAM0); test: chemoproteomic competition with immobilised GSK569A/GSK574A beads, TMT LC-MS/MS; IC50 […]; format: biochemical
T1 construct: gene BQ2027_MB0143
T1 sequence (A0A679LAM0 entry or part of it): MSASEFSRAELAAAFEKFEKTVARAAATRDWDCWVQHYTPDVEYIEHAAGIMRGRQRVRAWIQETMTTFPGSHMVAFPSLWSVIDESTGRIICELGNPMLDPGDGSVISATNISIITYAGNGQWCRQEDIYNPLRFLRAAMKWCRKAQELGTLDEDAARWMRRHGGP

BCG_0109 (EthR2) = target: T2, BCG_0109 (EthR2) (Mycobacterium tuberculosis, UniProt O53623); test: as above; format: biochemical
T2 construct: gene Rv0078
T2 sequence (O53623 entry or part of it): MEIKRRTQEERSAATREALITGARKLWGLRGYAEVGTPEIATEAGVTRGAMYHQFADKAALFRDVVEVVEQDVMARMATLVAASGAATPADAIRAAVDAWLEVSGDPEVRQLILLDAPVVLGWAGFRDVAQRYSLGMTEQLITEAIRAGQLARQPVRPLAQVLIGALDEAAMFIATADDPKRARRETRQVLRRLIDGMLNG

EthR2 (Rv0078) = EthR2 (Rv0078) (Mycobacterium tuberculosis, UniProt O53623); test: biochemical; format: binding
Chain of EthR2 (Rv0078) (O53623 entry or part of it): as above

| Compound | Kd [1] [µM] | Kd (BCG_0109 (EthR2)) [µM] | Kd (EthR2 (Rv0078)) [µM] |
| --- | --- | --- | --- |
| Cc1c(CN2CCN(C)CC2)cc(-c2ccc(C(C)C)cc2)n1-c1ccc(F)cc1 [GSK074A, 1-((1-(4-Fluorophenyl)-5-(4-isopropylphenyl)-2-methyl-1H-pyrrol-3-yl)methyl)-4-methylpiperazine] | 7.3 | 2.9 |  |
| Cc1c(CN2CCN(C)CC2)cc(-c2ccc(Cl)cc2)n1-c1ccc(Cl)cc1 [BM212, 1-((1,5-bis(4-chlorophenyl)-2-methyl-1H-pyrrol-3-yl)methyl)-4-methylpiperazine] |  |  | 0.66 |
